# From patent US20100190851A1, “Use of Entacapone in cosmetic, dermatological and pharmaceutical compositions” (priority 2007, published 2010)
# Legend:
# [1] = biological target: T1, human L-Selectin-IgG-chimera (Homo sapiens, UniProt P14151); test: Sialyl Lewis^X Tyrosine Sulfate Assay (sLe^X TSA), L-selectin; details: binding of L-selectin chimera to sLe^X-tyrosine sulfate polyacrylamide
# T1 construct: fused on or other part: human IgG Fc part, fused on as a capture and dimerising handle (captured by goat anti human Fc antibody)
# T1 sequence (P14151 39-318 limits assumed): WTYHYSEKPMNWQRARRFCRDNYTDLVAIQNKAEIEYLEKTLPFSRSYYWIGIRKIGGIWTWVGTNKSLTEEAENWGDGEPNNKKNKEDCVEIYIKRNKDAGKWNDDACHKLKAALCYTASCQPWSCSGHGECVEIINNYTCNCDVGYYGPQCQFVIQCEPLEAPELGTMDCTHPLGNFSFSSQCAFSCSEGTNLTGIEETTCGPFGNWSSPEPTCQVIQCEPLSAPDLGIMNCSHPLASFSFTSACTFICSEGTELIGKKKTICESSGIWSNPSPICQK
# Experimental: Sialyl Lewis^X Tyrosine Sulfate Assay (sLe^X TSA):
# Compound of formula (I) is assayed on a molecular level for the ability to inhibit the binding of P- and L-selectin chimeric molecules to sLe^X and tyrosinesulfate residues linked to a polymeric matrix as a PSGL-1 substitute. IC50-values are determined.
# Microtiter plates are coated overnight in carbonate buffer pH9.6 with goat anti human Fc mAB (10 μg/ml). After washing in assay buffer (25 mM 4-(2-hydroxyethyl)-1-piperazineethanesulfonic acid (HEPES), 150 mM NaCl, 1 mM CaCl2 pH7.4) and blocking (3% bovine serum albumin (BSA) in assay buffer) plates are incubated for 2 h at 37° C. with human P-Selectin-IgG-chimera (0.61 nM respectively 150 ng/mL) or human L-Selectin-IgG-chimera (0.61 nM respectively 89 ng/mL). 5 μl of sLe^X-tyrosine sulfate polyacrylamide (1 mg/ml) carrying 15% sLe^X, 10% Tyrosine-sulfate and 5% biotin is complexed with 20 μl Streptavidin-Peroxidase solution (1 mg/ml) and 25 μl assay buffer without CaCl2. […]
# After incubation for 2 h at 37° C., wells are washed for six times with in assay buffer incl. […] Bound sLe^X-Tyrosine sulfate ligand complex is determined by measuring optical density at 450 nm vs. 620 nm in a Fusion alpha-FP reader (sold from Packard Bioscience, Dreieich, Germany). […]
# [2] = tested on: Jurkat T-cells (attachment to E-Selectin); test: Modulation of T-cells: flow chamber assay with pre-treated Jurkat cells, E-selectin; type: cell-based; details: cells pre-incubated 5 minutes with compound, washed twice; flow chamber as Example 2
# Experimental: (§1) Cell attachment under flow conditions is determined using a parallel flow chamber system. A 35 mm polystyrene culture dish is coated for 1 h at room temperature with coating buffer (50 mM tris-(hydroxymethyl) aminomethane buffer (Tris), 150 mM NaCl, 2 mM CaCl2; pH 7.4) containing human E- or P-selectin-IgG chimera at concentrations of […], respectively. After removal of the coating solution non specific binding sites are blocked for an additional hour with 1% BSA in coating buffer at room temperature.
# (§2) After washing with assay buffer (“Roswell Park Memorial Institute 1640” (RPMI 1640)+10 mM HEPES) the dish is fitted into a parallel plate laminar flow chamber (sold from Glycotech, Rockville, Md.) and mounted on an inverted phase-contrast microscope (sold from Olympus, Hamburg, Germany) equipped with a CCD camera (JVC) that is connected to a PC. […] The flow rate is then decreased resulting in a calculated flow shear of 1 dyne/cm^2. Video sequences of 10 low power fields are digitally recorded after 5 minutes continuous flow. The percentage of inhibition is calculated from the mean number of cells per field that attached to the coated dish surface in the presence versus absence of compound of formula (I) of at independent experiments. […]
# [3] = tested on: human P-selectin-IgG chimera; test: Flow chamber assay, attachment of HL-60 cells to P-selectin; type: cell-based; parameters: dose or concentration left out as unconfirmed; details: flow shear 1 dyne/cm^2; after 5 minutes continuous flow
# Experimental: (§3) Flow Chamber Assay/Cell Adhesion and Rolling under Flow Conditions
# (§4) To assess the capability of compound of formula (I) to inhibit cell binding under dynamic conditions resembling the flow in a blood vessel, flow chamber assays addressing/testing binding of HL-60 cells/various cell lines to P-selectin, and E-selectin chimeric molecules are performed.
# (§5) Cell attachment under flow conditions is determined using a parallel flow chamber system. […]
# as §2
# [4] = tested on: Jurkat T-cells (attachment to P-Selectin); test: Modulation of T-cells: flow chamber assay with pre-treated Jurkat cells, P-selectin; type: cell-based; details: cells pre-incubated 5 minutes with compound, washed twice; flow chamber as Example 2
# Experimental: as §1, §2
# [5] = tested on: human E-selectin-IgG chimera; test: Flow chamber assay, attachment of HL-60 cells to E-selectin; type: cell-based; parameters: dose or concentration left out as unconfirmed; details: flow shear 1 dyne/cm^2; after 5 minutes continuous flow
# Experimental: as §3, §4, §5, §2
# [6] = tested on: neutrophil infiltration into the peritoneum; test: Thioglycollate-induced peritonitis in mice; type: in vivo
# Experimental: The compound of formula (I) is investigated in a thioglycollate-induced peritonitis model in mice employing standard method (see A. E. R. Hicks et al., J. Leukoc. Biol. 2005, 77, 59-66; M. C. Montesinos et al., Arthritis Res. Ther. 2006, 8(2): R53-R59).
# Groups of 10 male mice weighting 24±2 g are used. Peritonitis is induced by intraperitoneal (i.p.) injection of 1 ml 4% thioglycollate medium in 0.9% NaCl to cause neutrophil infiltration into the peritoneum. The compound of formula (I) is dissolved in DMSO, diluted with PBS (phosphate buffered saline) and adjusted to neutral pH with NaOH. The solution of the compound of formula (I) and vehicle is administered intravenously (i.v.) 15 minutes or by oral gavage (p.o.) 60 minutes before thioglycollate medium challenge. The steroid compound Dexamethasone (3 mg/kg, p.o.; known product for rheumatoid arthritis) as the positive control compound is administered by oral gavage 60 minutes before thioglycollate medium challenge.
# After 4 hr of induction, neutrophil counts are determined by Automated Hematology Analyzer (provider: Sysmex, XT-2000i equipped with XT-2000iV software) in peritoneal lavage (3 ml PBS) harvested from animals sacrificed by CO2 asphyxiation.
# Normal control groups are mock induced by i.p. injection of 0.9% NaCl Inhibition of 30% or more (≧30) in the neutrophil count relative to the vehicle control is considered significant and indicates possible anti-inflammatory activity.
# The compound of formula (I) is administered i.v. in different doses, 25 mg/kg, 10 mg/kg, 5 mg/kg, 1 mg/kg, 0.5 mg/kg and 0.25 mg/kg. The compound of formula (I) is also administered p.o. in different doses, 500 mg/kg, 250 mg/kg, 100 mg/kg, 50 mg/kg, 25 mg/kg, 10 mg/kg, 5 mg/kg and 1 mg/kg.
# [7] = biological target: T2, human P-Selectin-IgG-chimera (Homo sapiens, UniProt P16109); test: Sialyl Lewis^X Tyrosine Sulfate Assay (sLe^X TSA), P-selectin; details: binding of P-selectin chimera to sLe^X-tyrosine sulfate polyacrylamide
# T2 construct: fused on or other part: human IgG Fc part, fused on as a capture and dimerising handle (captured by goat anti human Fc antibody)
# T2 sequence (P16109 42-195 limits assumed): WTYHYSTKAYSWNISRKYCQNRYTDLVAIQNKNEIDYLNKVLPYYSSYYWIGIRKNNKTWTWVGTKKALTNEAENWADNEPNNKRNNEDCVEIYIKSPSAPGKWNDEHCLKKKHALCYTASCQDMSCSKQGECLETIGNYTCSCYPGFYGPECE
# Experimental: IC50-values are determined.
# Microtiter plates are coated overnight in carbonate buffer pH9.6 with goat anti human Fc mAB (10 μg/ml).
# After incubation for 2 h at 37° C., wells are washed for six times with in assay buffer incl. 0.005% Polyoxyethylenesorbitan monolaurate (TWEEN 20), developed for 10-15 min with 20 μl 3,3′,5,5′-tetramethylbenzidine (TMB)/H202 substrate solution and stopped with 20 μl 1 M H2SO4.
# [8] = Skin penetration, parallel artificial membrane permeability assay (skin-PAMPA); type: in vitro ADME
# Experimental: To predict passive human skin permeability of compound of formula (I) a parallel artificial membrane permeability assay is performed that mimics the main barrier properties of human stratum corneum (skin-PAMPA).
# The filter of the donor compartment of a hydrophobic PVDF 96-well microtiter filter plate (Millipore, Schwalbach, Germany) is coated with a mixture of 70% silicone and 30% isopropyl myristate dissolved in hexane. After evaporation of solvent the donor compartment is filled with buffer (pH 4) containing compound of formula (I) and assembled to the acceptor compartment filled with buffer (pH 4). The assembled plate is incubated at room temperature for 16 hours. Absorbance of compound of formula (I) in the dissembled acceptor compartment is measured with a photometer (Spectramax, Molecular Devices, Sunnyvale, Calif., USA). Permeation (% flux) of compound of formula (I) through the coated filter (artificial membrane) is calculated based on equilibrium absorbance.
Compound,IC50 [1] [µM],"% inhibition of attachment of Jurkat cells (pre-treated), E-Selectin [2] [%]","% inhibition of attachment of HL-60 cells, P-Selectin [3] [%]","% inhibition of attachment of Jurkat cells (pre-treated), P-Selectin [4] [%]","% inhibition of attachment of HL-60 cells, E-Selectin [5] [%]","inhibition of neutrophil influx compared with dexamethasone (3 mg/kg, p.o.) ([6]; depending on the dose)","inhibition of neutrophil influx (in words) ([6]; i.v. 0.25-25 mg/kg or p.o. 1-500 mg/kg, inhibition of 30% or more considered significant)","inhibition of neutrophil influx (inhibition rate) ([6]; i.v. and p.o. at different doses before thioglycollate, neutrophil count 4 hr after induction)",IC50 [7] [µM],"Permeation (% flux) ([8]; 70% silicone / 30% isopropyl myristate membrane, pH 4, room temperature, 16 hours) [%]","skin penetration (in words) ([8]; skin-penetration assay, Example 4)"
sialyl Lewis X [sLe^X],> 3600,–,–,–,–,–,–,–,–,–,–
"CCN(CC)C(=O)/C(C#N)=C/c1cc(O)c(O)c([N+](=O)[O-])c1 [compound of formula (I), (2E)-2-cyano-3-(3,4-dihydroxy-5-nitrophenyl)-N,N-diethylacrylamide]",1250,30,36,39,30,comparable or better,significant inhibition of neutrophil influx,more than 30%,189,>60,high penetration
